In patent US11446298B2, “Pyrimidine derivatives” (Idorsia Pharmaceuticals Ltd, priority 2017, dated 2022):

Assays:
Type in all cases: cell-based
EP2 = biological target: T1, EP2 (Homo sapiens, UniProt P43116); experiment: hEP2 cAMP Assay (SF295 glioblastoma cells, HTRF cAMP, PGE2 75 nM); conditions: antagonistic activity, PGE2 75 nM (EC80)
T1 construct: SF295 glioblastoma cells express high endogenous EP2 and no EP4; host or cells: SF295 glioblastoma cells
Method: (§1) The antagonistic activities of the compounds of formula (I) on the EP2 and EP4 receptors are also determined in accordance with the following experimental method.
(§2) Human tumor cell lines expressing endogenously either EP4 or EP2 are used and cAMP accumulation in cells upon PGE2 stimulation is monitored. SF295 glioblastoma cells express high endogenous EP2 and no EP4, whereas BT549 breast cancer cells, express high endogenous EP4 levels and very low EP2 levels.
(§3) As a detection method for cAMP the HTRF (homogeneous time resolved fluorescence) Cisbio kit (HTRF cAMP dynamic 2 kit 20′000 tests Cisbio Cat. #62AM4PEC) was used, which is based on a competitive immunoassay using a Cryptate-labeled anti-cAMP antibody and d2-labeled cAMP. Native cAMP produced by cells or unlabeled cAMP (for the standard curve) compete with exogenously added d2-labeled cAMP (acceptor) for binding to monoclonal anti-cAMP-Eu3+Cryptate (donor). A FRET signal (Fluorescence Resonance Energy Transfer) is obtained only if the labeled anti-cAMP antibody binds the d2 labelled cAMP, thus the specific signal (i.e. energy transfer) is inversely proportional to the concentration of cAMP in the standard or sample.
(§4) The SF295 cells (NCI/No. 0503170) are detached from culture dishes with a cell dissociation buffer (Invitrogen, 13151-014), and collected in growing medium (GM: RPM11640 (Invitrogen 21875)/10% FCS, 1% Penicilin/streptomycin). Cells are counted washed and resuspended in assay buffer (AB; HBSS, 20 mM HEPES, 0.2% BSA; 2 mM IBMX). 4′000 cells in 5 μL of AB are seeded per well of a small volume 384 well plate (black with flat bottom, Greiner 784076).
(§5) Stock solutions of test compounds are made at a concentration of 10 mM in DMSO, and serially diluted in DMSO to concentrations required for inhibition dose response curves (tested concentration range 30 μM-0.4 nM; 30 μM-0.015 nM or 1 μM-0.01 nM).
PGE2 (Cayman 14010, stock solution: 75 μM in DMSO) is used as agonist at 75 nM final concentration, corresponding to EC80.
(§6) 2.5 μL of diluted compounds are transferred into the assay plate. Plate is pre-incubated 45 minutes at room temperature. Subsequently, 2.5 μL of PGE2 (final conc. 75 nM) are transferred into the assay plate. Plate is incubated 30 minutes at room temperature. Five μL of each donor (anti-cAMP cryptate) and acceptor (cAMP-d2) are added and the plate is incubated another hour at room temperature in the dark and then read using a BMG LABTECH PHERAstar reader (Excitation: 337 nm, Emission: 620 and 665 nm).
(§7) The obtained Delta F (fluorescence) values (665 nm/620 nM) are converted into % cAMP values using the measurements of the cAMP calibrator provided in the kit. For each compound concentration the percentage of cAMP compared to DMSO control value as average ±STDEV (each concentration is measured in duplicate) is calculated.
(§8) IC50 values and curves are generated with XLfit software (IDBS) using Dose-Response One Site model 203. When compounds were measured multiple times, mean values are given.

EP4 = biological target: T2, EP4 (Homo sapiens, UniProt P35408); experiment: hEP4 cAMP Assay (BT549 breast cancer cells, HTRF cAMP, PGE2 6 nM); conditions: antagonistic activity, PGE2 6 nM (EC80)
T2 construct: BT549 breast cancer cells, express high endogenous EP4 levels and very low EP2 levels; host or cells: BT549 breast cancer cells
T2 sequence (P35408 whole entry): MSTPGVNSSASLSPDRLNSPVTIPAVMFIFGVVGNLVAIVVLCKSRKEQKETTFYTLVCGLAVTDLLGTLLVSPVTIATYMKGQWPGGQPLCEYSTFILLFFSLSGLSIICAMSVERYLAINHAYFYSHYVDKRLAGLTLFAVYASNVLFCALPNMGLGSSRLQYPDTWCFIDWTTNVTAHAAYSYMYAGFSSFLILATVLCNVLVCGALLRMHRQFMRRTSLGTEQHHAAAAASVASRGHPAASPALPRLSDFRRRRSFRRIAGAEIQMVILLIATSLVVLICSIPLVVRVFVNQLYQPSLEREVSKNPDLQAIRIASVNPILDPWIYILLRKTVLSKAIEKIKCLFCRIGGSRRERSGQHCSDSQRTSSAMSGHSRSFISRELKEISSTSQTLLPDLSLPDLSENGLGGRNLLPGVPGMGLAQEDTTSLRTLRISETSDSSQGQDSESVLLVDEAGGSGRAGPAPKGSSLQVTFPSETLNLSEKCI
Method: as §1, §2, §3
as §4, with “BT549” for “SF295”, “0507282)” for “0503170)”, “RPMI1640” for “RPM11640”
as §5
PGE2 (Cayman 14010, stock solution: 6 uM in DMSO) is used as agonist at 6 nM final concentration, corresponding to EC80.
as §6, with “6” for “75”, “5” for “Five”
as §7, §8

PTGER2 (EP2) = biological target: T3, PTGER2 (EP2) (Homo sapiens, UniProt P43116); experiment: hEP2 b-Arrestin Assay (PathHunter HEK 293 PTGER2 b-arrestin cells, PGE2 5 μM); conditions: antagonistic activity, beta-arrestin assay, HEK 293 PTGER2 cells, PGE2 5 μM (EC80); read-out: hEP2 b-arr IC50
T3 construct: host or cells: HEK 293 (PathHunter, stably transfected)
T3 sequence (P43116 whole entry): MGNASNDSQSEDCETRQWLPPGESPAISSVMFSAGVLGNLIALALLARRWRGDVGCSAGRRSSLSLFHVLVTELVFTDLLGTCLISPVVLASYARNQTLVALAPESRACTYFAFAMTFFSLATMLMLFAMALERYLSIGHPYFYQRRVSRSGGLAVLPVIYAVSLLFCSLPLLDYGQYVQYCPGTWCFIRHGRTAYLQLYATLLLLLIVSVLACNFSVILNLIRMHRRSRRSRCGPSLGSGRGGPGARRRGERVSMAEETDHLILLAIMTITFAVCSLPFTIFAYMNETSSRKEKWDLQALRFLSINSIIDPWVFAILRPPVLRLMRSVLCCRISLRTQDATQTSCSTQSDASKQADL
Method: as §1
The assay is using the PathHunter™ HEK 293 PTGER2 and PTGER4 b-arrestin cell lines from DiscoverX. The system is based on the Enzyme Fragment Complementation Technology. Two complementing fragments of the b-galactosidase enzyme are expressed within stably transfected cells. The larger portion of b-gal, termed EA for Enzyme Acceptor, is fused to the C-terminus of b-arrestin 2. The smaller fragment, termed ProLink™ tag, is fused to PTGER2 (EP2) or PTRGER4 (EP4) at the C-terminus. Upon activation, b-arrestin is recruited which forces the interaction of ProLink and EA, allowing complementation of the two fragments of b-gal and the formation of a functional enzyme which is capable of hydrolysing the substrate and generating a chemiluminescent signal.
The HEK 293 PTGER2 b-arrestin cells (DiscoverX 93-021-4C1) are detached from culture dishes with a cell dissociation buffer (Invitrogen, 13151-014), and collected in growing medium (GM: DMEM+Glutamax-I (Invitrogen 32430)/10% FCS, 1% Penicilin/streptomycin). 5000 cells per well of a 384 well plate (white with white bottom Greiner 781080) are seeded in 20 μl per well of GM. Plate is incubated at 37° C., 5% CO2 for 24 hours.
Stock solutions of test compounds are made at a concentration of 10 mM in DMSO, and serially diluted in DMSO to concentrations required for inhibition dose response curves (tested concentration range 10 μM-2 nM or 1 μM-0.2 nM).
PGE2 (Cayman 14010, stock solution: 10 mM in DMSO) is used as agonist at 5 μM final concentration, corresponding to EC80.
Five microliters of diluted compounds are transferred into the assay plate. Plate is pre-incubated 15 minutes at 37° C. Then five microliters of PGE2 (final conc. 5 μM) are transferred into the assay plate. Plate is incubated 120 minutes at 37° C.
PathHunter Glo Detection Kit components are thawed and mix according to manufacturer's instructions: 1 part Galacton Star Substrate with 5 parts Emerald II™ Solution, and 19 parts of PathHunter Cell Assay Buffer, respectively. Twelve μl of reagent are transferred to the assay plate and incubate for 1 hour at room temperature in the dark. Luminescence counts are read on a BMG Fluostar Optima reader according to manufacturer's instructions.
For each compound concentration calculate of the percentage of activity compared to DMSO control value as average ±STDEV. (each concentration is measured in duplicate)
as §8

T1 sequence (P43116 whole entry): as above

Row | Compound | IC50 (EP2) [nM] | IC50 (EP4) [nM] | IC50 (PTGER2 (EP2)) [nM]
1 | O=C(O)c1ccc(-c2cc(NCCc3ccc(Cl)c4ccccc34)ncn2)cc1OC1CCC1 [Example 61, 4-{6-[2-(4-Chloro-naphthalen-1-yl)-ethylamino]-pyrimidin-4-yl}-2-cyclobutoxy-benzoic acid] | 183 | 745 | 113
2 | O=C(O)c1ccc(-c2cc(NCCc3cccc4ccccc34)ncn2)cc1OC1CCC1 [Example 8, 2-Cyclobutoxy-4-[6-(2-naphthalen-1-yl-ethylamino)-pyrimidin-4-yl]-benzoic acid] | 133 | 568 | 71
3 | CCOc1cc(-c2cc(NCCc3ccc(Cl)c4ccccc34)ncn2)ccc1OCC(=O)O [Example 63, (4-{6-[2-(4-Chloro-naphthalen-1-yl)-ethylamino]-pyrimidin-4-yl}-2-ethoxy-phenoxy)-acetic acid] | 239 | 300 | 99
4 | Cc1ccc2c(cnn2C)c1CCNc1cc(-c2ccc(-c3c(O)c(=O)c3=O)cc2)ncn1 [Example 92, 3-(4-{6-[2-(1,5-Dimethyl-1H-indazol-4-yl)-ethylamino]-pyrimidin-4-yl}-phenyl)-4-hydroxy-cyclobut-3-ene-1,2-dione] | 287 | 544 | –
5 | CCOc1cc(-c2cc(NCCc3cccc4ccsc34)ncn2)ccc1OCC(=O)O [Example 104] | 335 | 356 | –
6 | CCOc1cc(-c2cc(NCCc3c(C)ccc4c3cnn4C)ncn2)ccc1OCC(=O)O [Example 80, (4-{6-[2-(1,5-Dimethyl-1H-indazol-4-yl)-ethylamino]-pyrimidin-4-yl}-2-ethoxy-phenoxy)-acetic acid] | 338 | 495 | –
7 | CCOc1cc(-c2cc(NCCc3cccc4ccsc34)ncn2)ccc1CC(=O)O [Example 105, {4-[6-(2-Benzo[b]thiophen-7-yl-ethylamino)-pyrimidin-4-yl]-2-ethoxy-phenyl}-acetic acid] | 784 | 685 | –

Second part, the compound after the results:

Row | IC50 (EP2) [nM] | IC50 (EP4) [nM] | IC50 (PTGER2 (EP2)) [nM] | Compound
8 | 155 | 645 | 94 | CCOc1cc(-c2cc(NCCc3c(OC)ccc4ncccc34)ncn2)ccc1NCC(=O)O [Example 88, (2-Ethoxy-4-{6-[2-(6-methoxy-quinolin-5-yl)-ethylamino]-pyrimidin-4-yl}-phenylamino)-acetic acid]
9 | 29 | 550 | 31 | CCCc1cc(-c2cc(NCCc3c(OC)ccc4ccccc34)ncn2)cc(F)c1C(=O)O [Example 123, 2-Fluoro-4-{6-[2-(2-methoxy-naphthalen-1-yl)-ethylamino]-pyrimidin-4-yl}-6-propyl-benzoic acid]
10 | 11 | 292 | 17 | CCOc1cc(-c2cc(NCCc3c(OC)ccc4ccccc34)ncn2)ccc1C(=O)O [Example 3, 2-Ethoxy-4-{6-[2-(2-methoxy-naphthalen-1-yl)-ethylamino]-pyrimidin-4-yl}-benzoic acid]
11 | 49 | 381 | 61 | CCOc1cc(-c2cc(NCCc3c(OC)ccc4ccccc34)ncn2)sc1CC(=O)O [Example 132, (3-Ethoxy-5-{6-[2-(2-methoxy-naphthalen-1-yl)-ethylamino]-pyrimidin-4-yl}-thiophen-2-yl)-acetic acid]
12 | 210 | 685 | 190 | COc1ccc2ncccc2c1CCNc1cc(-c2ccnc(N3CCCCC3)c2)ncn1 [Example 112, [2-(6-Methoxy-quinolin-5-yl)-ethyl]-[6-(3,4,5,6-tetrahydro-2H-[1,2′]bipyridinyl-4′-yl)-pyrimidin-4-yl]amine]
13 | 197 | 878 | 178 | COc1cc(-c2cc(NCCc3c(OC)ccc4ncccc34)ncn2)sc1C1(O)COC1 [Example 89, 3-(3-Methoxy-5-{6-[2-(6-methoxy-quinolin-5-yl)-ethylamino]-pyrimidin-4-yl}-thiophen-2-yl)-oxetan-3-ol]
14 | 228 | 818 | 146 | COc1ccc2ncccc2c1CCNc1cc(-c2ccc(-c3c(O)c(=O)c3=O)cc2)ncn1 [Example 91, 3-Hydroxy-4-(4-{6-[2-(6-methoxy-quinolin-5-yl)-ethylamino]-pyrimidin-4-yl}-phenyl)-cyclobut-3-ene-1,2-dione]
15 | 163 | 368 | 78 | CCOc1cc(-c2cc(NCCc3c(C(F)F)ccc4ccccc34)ncn2)sc1C(=O)O [Example 70, 5-{6-[2-(2-Difluoromethyl-naphthalen-1-yl)-ethylamino]-pyrimidin-4-yl}-3-ethoxy-thiophene-2-carboxylic acid]
16 | 95 | 493 | 245 | Cc1ccc2c(cnn2C)c1CCNc1cc(-c2ccc3ccncc3c2)ncn1 [Example 115, [2-(1,5-Dimethyl-1H-indazol-4-yl)-ethyl]-(6-isoquinolin-7-yl-pyrimidin-4-yl)-amine]
17 | 15 | 289 | 87 | COc1ccc2ccccc2c1CCNc1cc(-c2cc3c(C(=O)O)cccc3[nH]2)ncn1 [Example 129, 2-{6-[2-(2-Methoxy-naphthalen-1-yl)-ethylamino]-pyrimidin-4-yl}-1H-indole-4-carboxylic acid]
